Where a name gives a salt, the structure may show the parent alone. Read-outs that look alike come from different tables or passages of the source.
Molecular target: T1, human-derived receptor TLR7 (Homo sapiens, UniProt Q9NYK1)
T1 construct: host or cells: HEK-Blue hTLR7 cells (HEK293-derived reporter line)
T1 sequence (Q9NYK1 27-1049): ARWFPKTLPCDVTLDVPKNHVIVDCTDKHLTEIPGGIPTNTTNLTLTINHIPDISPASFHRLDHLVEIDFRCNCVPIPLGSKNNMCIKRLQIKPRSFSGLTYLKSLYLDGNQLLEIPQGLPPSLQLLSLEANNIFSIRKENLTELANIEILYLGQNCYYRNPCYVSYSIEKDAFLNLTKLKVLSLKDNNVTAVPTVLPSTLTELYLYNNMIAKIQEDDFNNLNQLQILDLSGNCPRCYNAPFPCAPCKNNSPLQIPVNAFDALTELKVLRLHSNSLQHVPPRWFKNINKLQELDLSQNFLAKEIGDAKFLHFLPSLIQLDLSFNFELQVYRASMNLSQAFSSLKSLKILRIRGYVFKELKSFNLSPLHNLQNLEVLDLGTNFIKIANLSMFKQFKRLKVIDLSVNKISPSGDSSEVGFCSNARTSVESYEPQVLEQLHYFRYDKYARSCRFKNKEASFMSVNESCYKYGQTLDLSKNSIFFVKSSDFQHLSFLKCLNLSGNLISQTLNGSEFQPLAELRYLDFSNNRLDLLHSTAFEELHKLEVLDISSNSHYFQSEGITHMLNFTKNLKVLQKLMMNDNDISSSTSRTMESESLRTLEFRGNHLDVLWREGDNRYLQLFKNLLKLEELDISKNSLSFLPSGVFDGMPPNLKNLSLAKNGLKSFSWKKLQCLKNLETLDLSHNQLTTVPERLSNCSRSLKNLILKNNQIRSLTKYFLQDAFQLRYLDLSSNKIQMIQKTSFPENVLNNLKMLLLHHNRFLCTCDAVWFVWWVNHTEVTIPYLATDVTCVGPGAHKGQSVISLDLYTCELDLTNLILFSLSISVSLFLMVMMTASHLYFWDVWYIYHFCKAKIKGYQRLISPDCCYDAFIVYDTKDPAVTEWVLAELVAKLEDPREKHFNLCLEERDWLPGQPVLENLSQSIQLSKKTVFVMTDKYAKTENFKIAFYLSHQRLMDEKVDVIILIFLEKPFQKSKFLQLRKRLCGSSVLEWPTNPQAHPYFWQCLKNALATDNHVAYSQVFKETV
Assay: Assay on agonistic activity for human-derived receptor TLR7 (HEK-Blue hTLR7 cells, HEK-Blue Detection Medium)
Type: cell-based
Conditions: 16 h incubation, absorbance at 655 nm
Description: HEK-Blue™ hTLR7 cells (InvivoGen, hkb-htlr7) were cultured in a DMEM complete medium (Gibco, 12100) containing 10% FBS (Invitrogen, 10099141), 1% P/S (Invitrogen, 15140122), 10 μg/mL Blasticidin (InvivoGen, ant-bl-1), 100 μg/mL Zeocin (InvivoGen, ant-zn-1), and 100 μg/mL Normocin (InvivoGen, ant-nr-1). The cells were cultured in an incubator at 37° C. with 5% CO2. When HEK-Blue™ hTLR7 cells reached a growth density of 70%-80%, cell passage was needed.
The agonistic activity for the human-derived receptor TLR7 by HEK-Blue™ hTLR7 cells was assayed by HEK-Blue™ Detection Medium (InvivoGen, hd-det2). First, a bag of HEK-Blue™ Detection Medium powder was dissolved in 50 mL of ultra-pure sterile water for complete dissolution, and then the dissolved medium was filtered into a new 50 mL centrifuge tube through a 0.22 μm filter. Finally, antibiotics were added into the filtered detection medium until the final concentration was 1% for P/S and 100 μg/mL for Normocin. HEK-Blue™ Detection Medium was pre-heated to 37° C. in advance on the day of the assay on the activity for the TLR7 receptor, and the temperature was always maintained at 37° C.
The compound powder was dissolved in 100% DMSO (Sigma, D2650-100ML) to obtain a 10 mM stock solution, and the compound was completely dissolved by shaking with an oscillator. The stock solution of the compound was subjected to a 5-fold dilution to 2 mM with 100% DMSO. This was followed by a 3-fold serial dilution for a total of 8 concentration gradients. Then, each of the concentration gradients was subjected to a 20-fold dilution to 100 μM, 33.3 μM, 11.1 μM, 3.7 μM, 1.23 μM, […], 0.114 μM, and 0.05 μM using HEK-Blue™ Detection Medium. 20 μL of each of the dilutions was added to a 96-well cell culture plate (Corning, 3599).
On the day of the assay on the agonistic activity for the human-detived receptor TLR7, HEK-Blue™ hTLR7 cells has a growth density of 70%-80%, and the cell medium was removed. 1 mL of cell dissociation buffer (Gibco, 13151-014) was added to each 100 mm cell culture dish, and the cells were incubated in an incubator at 37° C. for 5 min. The cells were pipetted using a DMEM cell medium to obtain a single cell suspension, which was then centrifuged at 1000 rpm for 10 min to collect the cell pellet. The cell pellet was resuspended with HEK-Blue™ Detection Medium pre heated to 37° C. The cells were counted and diluted to 220,000 cells/mL. Finally, 180 μL of cell suspension (40,000 cells/well) was added to each well of the 96-well cell culture plate to which the compound had been added, and the cell suspension was mixed with the compound using a pipettor. Final concentrations of the compound were 10 μM, 3.3 μM, 1.1 μM, 0.37 μM, 0.12 μM, 0.04 μM, 0.01 μM, and 0.005 μM. After incubation in an incubator at 37° C. for 16 h, the absorbance was read at 655 nm using an M5e microplate reader (MD, USA).
The EC50 of the compound was calculated using the software GraphPad Prism (GraphPad Software, USA). The background reading of the detection culture was subtracted from the absorbance readings at 655 nm of all wells of the 96-well plate, the ratio of each well to the negative control well (the well without the compound) was calculated, and then the percentage of the ratio of each well to the positive control well (the well treated with 10 μM positive compound), i.e., the percentage of activity, was calculated. Finally, the sigmoidal dose-response (variable slope) curve between the percentage of activity and the concentration of the compound was calculated using the software GraphPad Prism to calculate the EC50 of the compound. […]

Row | Structure (SMILES) | EC50 (read-out: hTLR7 EC50) [nM] | EC50 (read-out: EC50) [nM]
1 | COc1nc2c(N)nc3ccccc3c2n1Cc1ccc(CN2CCCC2)cc1 [Comparative Example 1, 2-methoxy-1-((4-((pyrrolidin-1-yl)methyl)phenyl)methyl)-1H-imidazo[4,5-c]quinolin-4-amine trifluoroacetate, reference compound] | > 10000 | –
2 | CSc1nc2c(N)nc3ccccc3c2n1Cc1ccc(CN2CCCC2)cc1 [Example 40, 2-(methylthio)-1-(4-(pyrrolidin-1-ylmethyl)benzyl)-1H-imidazo[4,5-c]quinoline-4-amine] | 55 | < 50
3 | CSc1nc2c(N)nc3ccccc3c2n1Cc1ccc(N2CCN(C)CC2)nc1 [Example 199] | 43.6 | < 50
4 | COc1cc(CN(C)C)ccc1Cn1c(SC)nc2c(N)nc3ccccc3c21 [Example 240] | 28.4 | < 50

From patent US20240150346A1, “CLASS OF HETEROAROMATIC COMPOUND, PREPARATION METHOD THEREFOR AND USE THEREOF” (INNOVSTONE THERAPEUTICS LIMITED, priority 2021, published 2024)
